Test results from PubChem BioAssay (NCI).
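Each compound was tested at five concentrations against cells in 96-well plates for 48 hours. GI50: concentration for 50% inhibition of growth. TGI denotes the concentration required for complete inhibition of growth.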

Columns and labels:
Experiment in all cases: NCI anticancer screen, dose series, 48 h
786-0 renal = system: 786-0 renal
A498 renal = system: A498 renal
A549 NSCLC = system: A549 NSCLC
ACHN renal = system: ACHN renal
BT-549 breast = system: BT-549 breast
CAKI-1 renal = system: CAKI-1 renal
CCRF-CEM leukemia = system: CCRF-CEM leukemia
COLO 205 colon = system: COLO 205 colon
DU-145 prostate = system: DU-145 prostate
EKVX NSCLC = system: EKVX NSCLC
HCC-2998 colon = system: HCC-2998 colon
HCT-116 colon = system: HCT-116 colon
HCT-15 colon = system: HCT-15 colon
HL-60(TB) leukemia = system: HL-60(TB) leukemia
HOP-62 NSCLC = system: HOP-62 NSCLC
HS 578T breast = system: HS 578T breast
HT29 colon = system: HT29 colon
IGROV1 ovarian = system: IGROV1 ovarian
K-562 leukemia = system: K-562 leukemia
KM12 colon = system: KM12 colon
LOX IMVI melanoma = system: LOX IMVI melanoma
M14 melanoma = system: M14 melanoma
MALME-3M melanoma = system: MALME-3M melanoma
MCF7 breast = system: MCF7 breast
MDA-MB-231 breast = system: MDA-MB-231 breast
MDA-MB-435 = system: MDA-MB-435
MOLT-4 leukemia = system: MOLT-4 leukemia
NCI-H226 lung = system: NCI-H226 lung
NCI-H23 lung = system: NCI-H23 lung
NCI-H460 lung = system: NCI-H460 lung
NCI-H522 lung = system: NCI-H522 lung
NCI/ADR-RES ovarian = system: NCI/ADR-RES ovarian
OVCAR-3 ovarian = system: OVCAR-3 ovarian
OVCAR-4 ovarian = system: OVCAR-4 ovarian
OVCAR-5 ovarian = system: OVCAR-5 ovarian
OVCAR-8 ovarian = system: OVCAR-8 ovarian
PC-3 prostate = system: PC-3 prostate
RPMI-8226 leukemia = system: RPMI-8226 leukemia
RXF 393 renal = system: RXF 393 renal
SF-268 CNS = system: SF-268 CNS
SF-295 CNS = system: SF-295 CNS
SF-539 CNS = system: SF-539 CNS
SK-MEL-2 melanoma = system: SK-MEL-2 melanoma
SK-MEL-28 melanoma = system: SK-MEL-28 melanoma
SK-MEL-5 melanoma = system: SK-MEL-5 melanoma
SK-OV-3 ovarian = system: SK-OV-3 ovarian
SN12C renal = system: SN12C renal
SNB-19 CNS = system: SNB-19 CNS
SNB-75 CNS = system: SNB-75 CNS
SR leukemia = system: SR leukemia
SW-620 colon = system: SW-620 colon
T-47D breast = system: T-47D breast
TK-10 renal = system: TK-10 renal
U251 CNS = system: U251 CNS
UACC-257 melanoma = system: UACC-257 melanoma
UACC-62 melanoma = system: UACC-62 melanoma
UO-31 renal = system: UO-31 renal

**Q.** Which results are given for `C=CC[C@@H]1/C=C(\C)C[C@H](C)C[C@H](OC)[C@H]2O[C@@](O)(C(=O)C(=O)N3CCCC[C@H]3C(=O)O[C@H](/C(C)=C/C3CC[C@@H](O)[C@H](OC)C3)[C@H](C)[C@@H](O)CC1=O)[C@H](C)C[C@@H]2OC` (some centres undefined)?
**A.** GI50 (786-0 renal): 17.3 µM; TGI (786-0 renal): 35.1 µM; GI50 (A498 renal): 9.95 µM; TGI (A498 renal): 24.3 µM; GI50 (A549 NSCLC): 12.7 µM; TGI (A549 NSCLC): 25.7 µM; GI50 (ACHN renal): 15.4 µM; TGI (ACHN renal): 29.5 µM; GI50 (BT-549 breast): 10 µM; TGI (BT-549 breast): 27.2 µM; GI50 (CAKI-1 renal): 12.9 µM; TGI (CAKI-1 renal): 33.4 µM; GI50 (CCRF-CEM leukemia): 14.6 µM; TGI (CCRF-CEM leukemia): 39.7 µM; GI50 (COLO 205 colon): 19.3 µM; TGI (COLO 205 colon): 36.6 µM; GI50 (DU-145 prostate): 16.1 µM; TGI (DU-145 prostate): 30.2 µM; GI50 (EKVX NSCLC): 14.2 µM; TGI (EKVX NSCLC): 34.5 µM; GI50 (HCC-2998 colon): 18.8 µM; TGI (HCC-2998 colon): 34.7 µM; GI50 (HCT-116 colon): 13.8 µM; TGI (HCT-116 colon): 26.7 µM; GI50 (HCT-15 colon): 17.2 µM; TGI (HCT-15 colon): 38.1 µM; GI50 (HL-60(TB) leukemia): 16.4 µM; TGI (HL-60(TB) leukemia): 38.4 µM; GI50 (HOP-62 NSCLC): 16.2 µM; TGI (HOP-62 NSCLC): 31.1 µM; GI50 (HS 578T breast): 21.9 µM; TGI (HS 578T breast): 65.9 µM; GI50 (HT29 colon): 17.6 µM; TGI (HT29 colon): 33.5 µM; GI50 (IGROV1 ovarian): 17.3 µM; TGI (IGROV1 ovarian): 41 µM; GI50 (K-562 leukemia): 18.7 µM; TGI (K-562 leukemia): 52 µM; GI50 (KM12 colon): 14.9 µM; TGI (KM12 colon): 28.7 µM; GI50 (LOX IMVI melanoma): 15 µM; TGI (LOX IMVI melanoma): 29.7 µM; GI50 (M14 melanoma): 14.9 µM; TGI (M14 melanoma): 28.6 µM; GI50 (MALME-3M melanoma): 14.6 µM; TGI (MALME-3M melanoma): 32.1 µM; GI50 (MCF7 breast): 13.8 µM; TGI (MCF7 breast): 29 µM; GI50 (MDA-MB-231 breast): 15.8 µM; TGI (MDA-MB-231 breast): 31.4 µM; GI50 (MDA-MB-435): 16.2 µM; TGI (MDA-MB-435): 37.7 µM; GI50 (MOLT-4 leukemia): 14.4 µM; TGI (MOLT-4 leukemia): 41.6 µM; GI50 (NCI-H226 lung): 15.3 µM; TGI (NCI-H226 lung): 30.1 µM; GI50 (NCI-H23 lung): 16.3 µM; TGI (NCI-H23 lung): 32.7 µM; GI50 (NCI-H460 lung): 13.7 µM; TGI (NCI-H460 lung): 27.9 µM; GI50 (NCI-H522 lung): 12.7 µM; TGI (NCI-H522 lung): 27 µM; GI50 (NCI/ADR-RES ovarian): 15 µM; TGI (NCI/ADR-RES ovarian): 35.3 µM; GI50 (OVCAR-3 ovarian): 14.2 µM; TGI (OVCAR-3 ovarian): 27.2 µM; GI50 (OVCAR-4 ovarian): 13.9 µM; TGI (OVCAR-4 ovarian): 27.2 µM; GI50 (OVCAR-5 ovarian): 17.2 µM; TGI (OVCAR-5 ovarian): 37.2 µM; GI50 (OVCAR-8 ovarian): 16 µM; TGI (OVCAR-8 ovarian): 39.3 µM; GI50 (PC-3 prostate): 12.1 µM; TGI (PC-3 prostate): 25.7 µM; GI50 (RPMI-8226 leukemia): 8.59 µM; TGI (RPMI-8226 leukemia): 32.2 µM; GI50 (RXF 393 renal): 13.6 µM; TGI (RXF 393 renal): 27.3 µM; GI50 (SF-268 CNS): 13.8 µM; TGI (SF-268 CNS): 27.3 µM; GI50 (SF-295 CNS): 14.6 µM; TGI (SF-295 CNS): 31.9 µM; GI50 (SF-539 CNS): 17.5 µM; TGI (SF-539 CNS): 34 µM; GI50 (SK-MEL-2 melanoma): 17.4 µM; TGI (SK-MEL-2 melanoma): 33.4 µM; GI50 (SK-MEL-28 melanoma): 15.2 µM; TGI (SK-MEL-28 melanoma): 29.2 µM; GI50 (SK-MEL-5 melanoma): 13.7 µM; TGI (SK-MEL-5 melanoma): 26.6 µM; GI50 (SK-OV-3 ovarian): 16.7 µM; TGI (SK-OV-3 ovarian): 31.2 µM; GI50 (SN12C renal): 16.3 µM; TGI (SN12C renal): 31.6 µM; GI50 (SNB-19 CNS): 15.6 µM; TGI (SNB-19 CNS): 30.4 µM; GI50 (SNB-75 CNS): 12.3 µM; TGI (SNB-75 CNS): 25.1 µM; GI50 (SR leukemia): 14.1 µM; TGI (SR leukemia): 39.8 µM; GI50 (SW-620 colon): 16.5 µM; TGI (SW-620 colon): 32.2 µM; GI50 (T-47D breast): 16.5 µM; TGI (T-47D breast): 35.6 µM; GI50 (TK-10 renal): 14.3 µM; TGI (TK-10 renal): 27.8 µM; GI50 (U251 CNS): 14.2 µM; TGI (U251 CNS): 27.7 µM; GI50 (UACC-257 melanoma): 15.8 µM; TGI (UACC-257 melanoma): 30.6 µM; GI50 (UACC-62 melanoma): 13.4 µM; TGI (UACC-62 melanoma): 27.6 µM; GI50 (UO-31 renal): 12.8 µM; TGI (UO-31 renal): 26.4 µM
